Among the test systems are MDA-MB-231; Hs-578T; MDA-N; T47D; BT-549; RXF 631; DLD-1; 786-0; M19-MEL.
Holding throughout (assay): NCI-60 cell line screen, 48 h

Each structure is given as a SMILES string.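 In this assay, cells in 96-well plates receive the compound at five concentrations for 48 hours. Endpoints are linearly interpolated between the surrounding concentrations. GI50 marks 50% less growth.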 The source made the active and inactive calls. Rule as the data show it: active = GI50 up to about 1.1 µM and inactive = higher. Where a SMILES comes first, the peptide text is derived from it. Bounds are passed on as bounds.

`CO/N=C1\CC(NC(=O)CNC(=O)OC(C)(C)C)c2ccsc21` (configuration not stated): the GI50 was > 100 µM (inactive) with MDA-MB-231; > 100 µM (inactive) in the assay on Hs-578T; 49.2 µM (inactive) in the assay on MDA-N; > 100 µM (inactive) with T47D; > 100 µM (inactive) in the assay with BT-549.
`COc1nc(NC2OCC(OC(C)=O)C(OC(C)=O)C2OC(C)=O)c(/N=C(\C)C(C)=O)c(=O)n1C` (configuration not stated): the GI50 with RXF 631 and in the assay with DLD-1 was > 100 µM (inactive) each time.
Consider `CN1Nc2ccccc2CC1=O`, for which the GI50 in the assay on 786-0, in the assay on M19-MEL and with DLD-1 was > 100 µM (inactive) in each case.
Turning to `Nc1nc(=O)[nH]c2c1cnn2Cc1ccccc1`, the GI50 in the assay with RXF 631 and in the assay on DLD-1 was > 100 µM (inactive) throughout.
For `N#CCCN(CCC#N)c1ccc(/C=C(\NC(=O)c2cc([N+](=O)[O-])ccc2Cl)C(=O)Nc2ccccc2)cc1`, the GI50 is > 100 µM (inactive) with M19-MEL and 18.5 µM (inactive) in the assay on DLD-1.
`Cc1cc(O)nc(NN2C(Cl)C(=O)C2c2ccc([N+](=O)[O-])cc2)n1` (configuration not stated): in the assay with M19-MEL, the GI50 is 4.26 µM (inactive).
With `CCOc1ccc(/C=C2\N=C(c3ccccc3)OC2=O)cc1`, the GI50 in the assay on Hs-578T and with BT-549 was > 100 µM (inactive) in each case.
On to `NCCCCC(N)C(=O)N1CCN(c2nc(N3CCCC3)c3nc(Cl)c(NCc4ccccc4)nc3n2)CC1` (configuration not stated), for which the GI50 was 18.1 µM (inactive) in the assay with MDA-MB-231; 19.4 µM (inactive) in the assay with Hs-578T; 17.7 µM (inactive) with MDA-N; 17.8 µM (inactive) in the assay with 786-0; 18.5 µM (inactive) in the assay with BT-549.
The matching figures for `O=C1/C(=C/c2cccc(Br)c2)Cc2ccccc21`: 44.9 µM (inactive), 29.4 µM (inactive), 54 µM (inactive), > 100 µM (inactive) and 34.5 µM (inactive).
On to `COC1OCC(O)C(NC(=O)N(C)N=O)C1O` (configuration not stated), for which the GI50 in the assay with M19-MEL and with DLD-1 was > 100 µM (inactive) each time.
For the molecule `NC(=O)C1CCCN1C(=O)C(N)Cc1ccccc1` (stereo not drawn) (H-Phe-Pro-NH2; configuration not given here), the GI50 in the assay on MDA-MB-231, with MDA-N and in the assay on T47D was > 100 µM (inactive) each time.

For the origin of these results see ChEMBL document CHEMBL1201862, “PubChem BioAssay data set” (2004).
